Test results taken from US5753617A, “Peptide inhibitors of cellular adhesion” (Centocor, Inc., priority 1995, dated 1998).
Where a SMILES comes first, the peptide text is derived from it. Bridges are numbered along the chain shown (N, C = ends). [ ]: non-standard residue; d: D form.

Legend:
P-selectin = target: T1, P-selectin (Homo sapiens, UniProt P16109); experiment: Inhibition of human neutrophil adhesion to purified P-selectin immobilized on plastic wells; format: cell-based; settings: inhibiting the binding of human neutrophils to P-selectin
T1 construct: P-selectin is isolated from human platelet lysates; from tissue; host or cells: human platelets (outdated platelet packs from a blood bank)
T1 sequence (P16109 42-830): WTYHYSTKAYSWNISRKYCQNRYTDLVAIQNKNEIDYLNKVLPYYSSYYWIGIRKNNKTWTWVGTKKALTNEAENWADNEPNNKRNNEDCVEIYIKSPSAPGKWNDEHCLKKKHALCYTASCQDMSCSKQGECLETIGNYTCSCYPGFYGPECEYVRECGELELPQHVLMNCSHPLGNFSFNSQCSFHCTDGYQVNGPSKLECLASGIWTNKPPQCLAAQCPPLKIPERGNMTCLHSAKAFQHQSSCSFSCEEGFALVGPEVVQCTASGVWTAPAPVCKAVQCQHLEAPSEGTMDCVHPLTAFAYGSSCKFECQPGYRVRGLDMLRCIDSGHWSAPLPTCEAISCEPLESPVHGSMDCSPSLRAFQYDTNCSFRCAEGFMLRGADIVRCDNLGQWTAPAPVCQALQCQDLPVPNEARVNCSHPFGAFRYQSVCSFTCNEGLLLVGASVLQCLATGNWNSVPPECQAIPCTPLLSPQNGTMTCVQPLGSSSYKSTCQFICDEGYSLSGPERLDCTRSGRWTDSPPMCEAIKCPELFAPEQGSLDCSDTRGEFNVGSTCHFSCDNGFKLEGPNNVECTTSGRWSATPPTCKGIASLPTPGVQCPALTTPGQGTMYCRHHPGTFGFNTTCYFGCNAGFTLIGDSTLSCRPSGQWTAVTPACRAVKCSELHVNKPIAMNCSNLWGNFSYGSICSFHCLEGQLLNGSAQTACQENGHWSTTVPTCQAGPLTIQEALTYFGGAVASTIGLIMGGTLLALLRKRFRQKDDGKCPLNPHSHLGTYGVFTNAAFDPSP
How it was run: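 Isolated human neutrophils (2×10^5 per well) in HBSS with Ca2+/Mg2+ and HSA added to wells coated overnight at 4° C with platelet-derived P-selectin (5 micrograms/mL), HSA-blocked; 20 min at 22° C. Nonadherent cells removed by inverted centrifugation at 150 g; adherent cells quantified by myeloperoxidase activity.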

[1] = test system: neutrophil influx in thioglycolate-induced peritonitis; experiment: Inhibition of neutrophil influx in a rat model of thioglycolate-induced peritonitis; format: in vivo; settings: CD-1 rats, thioglycollate i.p.; peptide injected at -5 minutes, 1.5 hours and 3.5 hours; peritoneal cells counted at 4 hours
Method: CD-1 rats (175-200 g) were injected i.p. with 10 ml thioglycollate medium (BBL #21195/21196 lot#H1KBGP). At -5 minutes, 1.5 hours, and 3.5 hours post thioglycollate injection 5 rats were injected with D-arginyl-D-lysyl-cyclo(D-cysteinyl-glycyl-phenylalanyl-D-cysteinyl)-D-tryptophyl-D-threonyl-D-tryptophyl-D-valineamide (Preferred peptide (19)) (0.75 mls at -5, 0.25 mls at 1.5 and 0.25 mls at 3.5). 5 rats were injected with vehicle at the same time points (0.75 mls at -5, 0.50 mls at 1.5, and 0.25 mls at 3.5). 5 rats received thiogycollate only and served as controls. At 4 hours post thioglycollate injection all animals were sacrificed by CO2 asphyxiation. Neutrophils were harvested by flushing the peritoneal cavity with 50 mls of Hanks balanced salt solution w/o Ca and Mg (JHR Biosciences 55-02178P Lot# IL3697) containing 0.3% ultrapure EDTA (JT Baker 4040-01 lot# D42704). White cells were then counted using the Danam Vet 8 cell counter.

IC50 (P-selectin): 6 µM
Compound: CC(C)[C@@H](NC(=O)[C@@H](Cc1c[nH]c2ccccc12)NC(=O)[C@H](NC(=O)[C@@H](Cc1c[nH]c2ccccc12)NC(=O)[C@H]1CSSC[C@@H](NC(=O)[C@@H](CCCCN)NC(=O)[C@H](N)CCCNC(=N)N)C(=O)NCC(=O)N[C@@H](Cc2ccccc2)C(=O)N1)[C@H](C)O)C(N)=O [(19)] (H-[dR][dK][dC]GF[dC][dW][dT][dW][dV]-NH2; disulfide 3-6)
decrease in neutrophil influx in response to thioglycolate stimulation [1]: 67%
